Measurements as given in publication PMC3919453 (Bioorganic & medicinal chemistry letters, 2013).

Assays:
DOR = DOR (Rattus norvegicus, UniProt P33533); assay: agonist-stimulated [35S]GTPγS binding, DOR; conditions: for EC50 (nM) DOR: [35S]GTPγS binding, C6-DOR membranes, dns: does not stimulate
MOR = MOR (Rattus norvegicus, UniProt P33535); assay: agonist-stimulated [35S]GTPγS binding, MOR; conditions: for efficacy at MOR (in words): [35S]GTPγS assay; for EC50 (nM) MOR: [35S]GTPγS binding, C6-MOR membranes, mean ± SEM, dns: does not stimulate
MOR, sequence (P33535 whole entry): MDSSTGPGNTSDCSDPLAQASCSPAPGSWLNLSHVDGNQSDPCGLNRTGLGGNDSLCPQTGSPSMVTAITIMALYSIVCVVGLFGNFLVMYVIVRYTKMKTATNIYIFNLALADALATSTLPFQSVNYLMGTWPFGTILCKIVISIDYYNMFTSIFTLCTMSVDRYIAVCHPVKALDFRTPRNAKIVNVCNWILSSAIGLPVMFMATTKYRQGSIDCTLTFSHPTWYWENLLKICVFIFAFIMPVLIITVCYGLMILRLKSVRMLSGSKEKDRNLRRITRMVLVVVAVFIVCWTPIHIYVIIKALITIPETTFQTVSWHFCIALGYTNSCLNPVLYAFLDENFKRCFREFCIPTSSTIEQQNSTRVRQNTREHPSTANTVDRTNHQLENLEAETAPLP

KOR = KOR (Homo sapiens, UniProt P41145); assay: agonist-stimulated [35S]GTPγS binding, KOR; conditions: for EC50 (nM) KOR: [35S]GTPγS binding, CHO-KOR membranes, mean ± SEM; for EC50 (nM) KOR / % stimulation KOR: dns: does not stimulate; for % stimulation KOR: percent maximal stimulation relative to standard agonist U69,593 at 10 µM
KOR, sequence (P41145 whole entry): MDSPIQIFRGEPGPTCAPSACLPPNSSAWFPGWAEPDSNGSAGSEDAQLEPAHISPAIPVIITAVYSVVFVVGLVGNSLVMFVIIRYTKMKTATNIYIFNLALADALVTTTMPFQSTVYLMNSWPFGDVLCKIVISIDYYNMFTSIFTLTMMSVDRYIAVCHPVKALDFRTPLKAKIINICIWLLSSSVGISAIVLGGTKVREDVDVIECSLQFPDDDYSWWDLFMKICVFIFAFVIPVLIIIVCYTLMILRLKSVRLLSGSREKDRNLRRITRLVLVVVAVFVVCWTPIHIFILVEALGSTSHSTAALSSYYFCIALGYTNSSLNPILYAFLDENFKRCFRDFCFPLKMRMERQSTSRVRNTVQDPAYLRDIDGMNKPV

DOR, sequence (P33533 whole entry): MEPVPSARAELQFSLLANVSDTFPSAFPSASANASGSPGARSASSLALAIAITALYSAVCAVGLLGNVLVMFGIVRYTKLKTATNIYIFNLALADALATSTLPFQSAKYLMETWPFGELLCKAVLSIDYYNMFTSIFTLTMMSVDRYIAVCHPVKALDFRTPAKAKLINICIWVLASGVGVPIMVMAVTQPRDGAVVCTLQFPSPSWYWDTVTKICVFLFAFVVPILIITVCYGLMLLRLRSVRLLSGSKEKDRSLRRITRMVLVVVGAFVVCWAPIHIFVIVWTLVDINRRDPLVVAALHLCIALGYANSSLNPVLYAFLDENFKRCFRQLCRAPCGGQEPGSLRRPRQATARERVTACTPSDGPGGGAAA

SMILES | EC50 (nM) DOR (DOR) | efficacy at MOR (in words) (MOR) | EC50 (nM) KOR (KOR) | % stimulation KOR (KOR) | EC50 (nM) MOR (MOR) | efficacy at DOR (in words) (DOR; [35S]GTPγS assay) | efficacy at KOR (in words) (KOR; [35S]GTPγS assay)
Cc1cc(O)cc(C)c1C[C@H](N)C(=O)N1CCN(CCCCCc2ccccc2)CC1 [Compound 12] | dns |  |  |  |  |  | 
Cc1cc(O)cc(C)c1C[C@H](N)C(=O)N1CCC(CCCc2ccccc2)CC1 [Compound 4] | dns | weak partial agonist | dns | dns |  |  | 
Cc1cc(O)cc(C)c1C[C@H](N)C(=O)N1CCN(C/C=C\Cc2ccccc2)CC1 [Compound 11] | dns |  |  |  |  |  | 
Cc1cc(O)cc(C)c1C[C@H](N)C(=O)N1CCN(CCC(c2ccccc2)c2ccccc2)CC1 [Compound 8] | dns |  | dns | dns | dns |  | 
Cc1cc(O)cc(C)c1C[C@H](N)C(=O)N1CCN(CCCc2cccc3ccccc23)CC1 [Compound 6] |  | partial agonist profile |  | dns |  |  | 
Cc1cc(O)cc(C)c1C[C@H](N)C(=O)N1CCC(Cc2ccccc2)c2ccccc21 (some centres unmarked) [Compound 2] | dns | no notable efficacy | dns | dns | dns |  | 
Cc1cc(O)cc(C)c1C[C@H](N)C(=O)N1CCC(Cc2ccccc2)CC1 [Compound 3] | dns | lacked any efficacy | dns | dns | dns |  | 
Cc1cc(O)cc(C)c1C[C@H](N)C(=O)N1CCN(C/C=C/c2cccc3ccccc23)CC1 [Compound 7] |  | no efficacy |  | dns |  | no efficacy | no efficacy
Cc1cc(O)cc(C)c1C[C@H](N)C(=O)N1CCN(CCCCc2ccccc2)CC1 [Compound 9] | dns |  | dns |  |  |  | 
Cc1cc(O)cc(C)c1C[C@H](N)C(=O)N1CCN(C/C=C/Cc2ccccc2)CC1 [Compound 10] | dns |  |  |  |  |  | 
Cc1cc(O)cc(C)c1C[C@H](N)C(=O)N1CCN(CCCc2ccccc2)CC1 [Compound 5] | dns |  | dns | dns |  |  | 
